Experimental data reported in patent US20160115186A1, “PHOSPHORIC ACID/PHOSPHONIC ACID DERIVATIVES AND MEDICINAL USES THEREOF” (priority 2013, published 2016).
Read-outs that look alike come from different tables or passages of the source.

Experiments:
[1] = system: HBV; test: microbe, parasite or virus in culture; type: cell-based
Procedure: At day 10 post-dosing, 100 μl supernate was taken and the content of HBV DNA was measured by the method of Quantitative PCR to calculate IC50 value.

[2] = system: DHBV; test: animal or person; type: in vivo, sheldrakes; conditions: Duck hepatitis B virus, po, 336 h; for inhibition in vivo at 10 mg/kg: 10 mg/kg intragastric once a day for 14 days; for inhibition in vivo at 0.5 mg/kg: 0.5 mg/kg intragastric once a day for 14 days
Procedure: The sheldrakes infected by vertical transmission and being positive in DHBV DNA detection were grouped randomly, 5/group. Water and different doses of the compound to be tested were intragastrically administrated, respectively, once a day, for 14 days. Venous blood samples were collected pre-dosing, at day 14 of dosing and at day 7 after drug withdrawal, the serum DHBV DNA content was measured using external standard TaqMan real-time fluorescence PCR method, and the inhibition ratio was calculated, as compared to the solvent group.

[3] = in vitro; type: cell-based; conditions: human; Hep G 2.2.15 cells, MTT, day 3 post-dosing
Procedure: Hep G 2.2.15 cells were inoculated in a 96-well plate (with cell number being 5.5×10^4) to continually cultivate for 3 days, new culture solutions containing different concentrations of drugs were added, and 3 wells were provided in parallel; at day 3 post-dosing, MTT was added until 7.5 mg/ml, and continued to cultivate for 2 hours, the supernate was discarded, isopropanol containing 10% […] was added, 120 μl/well, and 0.4 μl/well was further added.

[4] = system: liver damage in mice caused by CCl4; type: in vivo, Kunmin mice; conditions: serum, CCl4 model, 0.2 mmol oral twice, 24 hours after second administration
Procedure: Kunmin mice (20 g) were grouped randomly (8/group). 0.2 mmol of a compound to be tested was orally administered; after 1 hour post-dosing, a 0.1% peanut oil solution of CCl4 was subcutaneously injected (10 mL/kg), to prepare a liver damage model; the normal saline was injected as a normal control group. After modeling for 12 hours, 0.2 mmol of the compound to be tested was orally administrated again. After 24 hours from the second administration, blood samples were collected to take serum specimen so as to determine ALT, AST.

[5] = system: liver damage in mice caused by D-aminogalactose; type: in vivo, Kunmin mice; conditions: serum, D-aminogalactose 750 mg/kg model, 0.2 mmol oral twice, 24 hours after second administration
Procedure: Kunmin mice (20 g) were grouped randomly (8/group). 0.2 mmol of a compound to be tested was orally administered; after 2 hours post-dosing, D-aminogalactose was intraperitoneally injected at a dose of 750 mg/kg to prepare a liver damage model, and the normal saline was subcutaneously injected as a normal control group. After modeling for 12 hours, 0.2 mmol of the compound to be tested was orally administrated again. After 24 hours from the second administration, blood samples were collected to take serum specimen so as to determine ALT, AST.

[6] = Hepatitis B virus, HepG2.2.15, 240 h, Hep G 2.2.15 cells, HBV DNA in supernate at day 10 post-dosing, read-out: IC50
[7] = read-out: Inhibition ratio (%) Day 14 of dosing
[8] = read-out: Inhibition ratio (%) day 7 after drug withdrawal
[9] = Hepatitis B virus, HepG2.2.15, 240 h
[10] = serum DHBV DNA, read-out: Inhibition ratio (%) Day 14 of dosing
[11] = serum DHBV DNA, read-out: Inhibition ratio (%) day 7 after drug withdrawal

| SMILES | IC50 [1, 6] | ALT [4] | AST [4] | ALT [5] | AST [5] | IC50 [1, 9] | CC50 at 3 days [3] | also measured |
| --- | --- | --- | --- | --- | --- | --- | --- | --- |
| Nc1nc2c(ncn2COCCO)c(=O)[nH]1 [Acyclovir, acyclovir, reference compound] | 25.6 µM |  |  |  |  |  |  | inhibition in vivo at 20 mg/kg [2, 7]: 12.5%; inhibition in vivo at 20 mg/kg [2, 8]: 2.64% |
| COC(=O)C(C)NP(=O)(OCC1OC(n2ccc(N)nc2=O)CS1)Oc1ccccc1 (stereo not shown) [Cf1109, reference compound] | 0.13 µM | 2048 U/L | 3351 U/L | 191 U/L | 140 U/L |  |  | CC50 [3]: 82 µM; inhibition in vivo at 20 mg/kg ([2]; serum DHBV DNA, 20 mg/kg intragastric once a day for 14 days, read-out: Inhibition ratio (%) Day 14 of dosing): 68.8%; inhibition in vivo at 20 mg/kg ([2]; serum DHBV DNA, 20 mg/kg intragastric once a day for 14 days, read-out: Inhibition ratio (%) day 7 after drug withdrawal): 5.38% |
| Nc1ncnc2c1ncn2CCOCP(=O)(Oc1cccc2c1OCO2)Oc1cccc2c1OCO2 [Compound I1, 9-[[[bis-((benzo[1,3]dioxolan-4-yl)-oxyl)-phosphonyl]-methoxyl]-ethyl]-adenine] |  | 328 U/L | 433 U/L | 679 U/L | 796 U/L | 8.05 µM | > 200 µM |  |
| Nc1ncnc2c1ncn2CCOCP(=O)(Oc1ccc2c(c1)OCO2)Oc1ccc2c(c1)OCO2 [Compound I2, 9-[[[bis-((benzo[1,3]dioxolan-5-yl)-oxyl)-phosphonyl]-methoxyl]-ethyl]-adenine] |  | 435 U/L | 764 U/L | 514 U/L | 560 U/L | 0.47 µM | > 200 µM |  |
| Nc1ncnc2c1ncn2CCOCP(=O)(Oc1cccc2c1OCCO2)Oc1cccc2c1OCCO2 [Compound I3, 9-[[[bis-((benzo[1,4]dioxan-5-yl)-oxyl)-phosphonyl]-methoxyl]-ethyl]-adenine] |  |  |  |  |  | 6.07 µM | > 200 µM |  |
| Nc1ncnc2c1ncn2CCOCP(=O)(Oc1ccc2c(c1)OCCO2)Oc1ccc2c(c1)OCCO2 [Compound I4, 9-[[[bis-((benzo[1,4]dioxan-6-yl)-oxyl)-phosphonyl]-methoxyl]-ethyl]-adenine] |  |  |  |  |  | 3.19 µM | > 200 µM |  |
| C[C@H](Cn1cnc2c(N)ncnc21)OCP(=O)(Oc1ccc2c(c1)OCO2)Oc1ccc2c(c1)OCO2 [Compound I6, 9-[(R)-2-[[bis-((benzo[1,3]dioxolan-5-yl)-oxyl)-phosphonyl]-methoxyl]-propyl]-adenine] |  |  |  |  |  | 0.41 µM | > 200 µM |  |
| Nc1nc2c(ncn2COCCOP(=O)(Oc2cccc3c2OCO3)Oc2cccc3c2OCO3)c(=O)[nH]1 [Compound I11, 9-[[[bis-((benzo[1,3]dioxolan-4-yl)-oxyl)-phosphoryloxyl]-ethoxyl]-methyl]-guanine] |  |  |  |  |  | 1.66 µM | > 200 µM |  |
| Nc1nc2c(ncn2COCCOP(=O)(Oc2ccc3c(c2)OCO3)Oc2ccc3c(c2)OCO3)c(=O)[nH]1 [Compound I12, 9-[[[bis-((benzo[1,3]dioxolan-5-yl)-oxyl)-phosphoryloxyl]-ethoxyl]-methyl]-guanine] |  |  |  |  |  | 0.24 µM | > 200 µM |  |
| COc1nc(N)nc2c1ncn2COCCOP(=O)(Oc1ccc2c(c1)OCO2)Oc1ccc2c(c1)OCO2 [Compound I13, 2-amino-6-methoxyl-9-[[[bis-((benzo[1,3]dioxolan-5-yl)-oxyl)-phosphoryloxyl]-ethoxyl]-methyl]-purine] |  |  |  |  |  | 0.29 µM | > 200 µM |  |
| Nc1ccn(C2CSC(COP(=O)(Oc3ccc4c(c3)OCO4)Oc3ccc4c(c3)OCO4)O2)c(=O)n1 (stereo not shown) [Compound I14, 5′-bis-[((benzo[1,3]dioxolan-5-yl)-oxyl)-phosphoryl]-2′,3′-dideoxy-3′-thia-cytidine] |  |  |  |  |  | 5.28 µM | > 200 µM |  |
| C=C1[C@H](COP(=O)(Oc2ccc3c(c2)OCO3)Oc2ccc3c(c2)OCO3)[C@@H](O)C[C@@H]1n1cnc2c(=O)[nH]c(N)nc21 [Compound I15, 9-[(1S,3R,4S)-4-hydroxyl-3-(bis-(((benzo[1,3]dioxolan-5-yl)-oxyl)-phosphoryl)-oxymethyl)-2-methylenecyclopentyl]-guanine] |  |  |  |  |  | 0.12 µM | > 200 µM |  |
| COC(=O)[C@@H](C)NP(=O)(CO[C@H](C)Cn1cnc2c(N)ncnc21)Oc1ccc2c(c1)OCO2 (stereo partly shown) [Compound I19] |  |  |  |  |  | 0.008 µM | 146 µM |  |
| CC(C)OC(=O)[C@H](NP(=O)(CO[C@H](C)Cn1cnc2c(N)ncnc21)Oc1ccc2c(c1)OCO2)C(C)C (stereo partly shown) [Compound I22] |  |  |  |  |  | 0.17 µM | > 200 µM |  |
| CC(C)OC(=O)[C@@H](C)NP(=O)(CO[C@H](C)Cn1cnc2c(N)ncnc21)Oc1cccc2c1OCO2 (stereo partly shown) [Compound I24] |  |  |  |  |  | 4.6 µM | > 200 µM |  |
| COc1ccc(Sc2nc(N)nc3c2ncn3CCOCP(=O)(N[C@H](C)C(=O)OC(C)C)Oc2ccc3c(c2)OCO3)cc1 (stereo partly shown) [Compound I26, 2-amino-6-(4-methoxylphenyl)thio-9-[[[(((benzo[1,3]dioxolan-5-yl)-oxyl)-1-isopropyloxylcarbonylethylamino)-phosphonyl]-methoxyl]-ethyl]-purine] |  | 521 U/L | 363 U/L | 212 U/L | 586 U/L | 0.039 µM | > 200 µM | inhibition in vivo at 25 mg/kg [2, 7]: 93.5%; inhibition in vivo at 25 mg/kg [2, 8]: 11.5% |
| COc1nc(N)nc2c1ncn2COCCOP(=O)(N[C@H](C)C(=O)OC(C)C)Oc1ccc2c(c1)OCO2 (stereo partly shown) [Compound I29] | 0.14 µM | 307 U/L | 561 U/L | 301 U/L | 510 U/L |  |  | CC50 [3]: > 200 µM; inhibition in vivo at 10 mg/kg [2, 10]: 90.8%; inhibition in vivo at 10 mg/kg [2, 11]: 17.1% |
| C=C1[C@H](CO[P@](=O)(N[C@@H](C)C(=O)OC(C)C)Oc2ccc3c(c2)OCO3)[C@@H](O)C[C@@H]1n1cnc2c(=O)[nH]c(N)nc21 [Compound I38-a] | 0.001 µM | 410 U/L | 289 U/L | 177 U/L | 275 U/L |  |  | CC50 [3]: 139 µM; inhibition in vivo at 0.5 mg/kg [2, 10]: 76.2%; inhibition in vivo at 0.5 mg/kg [2, 11]: 31.4% |
| C=C1[C@H](CO[P@](=O)(N[C@@H](C)C(=O)OC(C)C)Oc2cccc3c2OCO3)[C@@H](O)C[C@@H]1n1cnc2c(=O)[nH]c(N)nc21 [Compound I39-a] | 0.017 µM |  |  |  |  |  |  |  |
| C=C1[C@H](CO[P@@](=O)(N[C@@H](C)C(=O)OC(C)C)Oc2cccc3c2OCO3)[C@@H](O)C[C@@H]1n1cnc2c(=O)[nH]c(N)nc21 [Compound I39-b] | 0.065 µM |  |  |  |  |  |  |  |
| Nc1ccn([C@@H]2CS[C@H](CO)O2)c(=O)n1 [Lamivudine, lamivudine, reference compound] | 0.075 µM |  |  |  |  |  |  | inhibition in vivo at 20 mg/kg [2, 7]: 76.1%; inhibition in vivo at 20 mg/kg [2, 8]: 2.35% |
| Nc1ncnc2c1ncn2CCOCP(=O)(Oc1ccccc1)Oc1ccccc1 [i-1, 9-[[bis-(phenoxyl)-phosphonyl-methoxyl]-ethyl]-adenine, reference compound] |  | 2930 U/L | 2943 U/L | 1227 U/L | 1456 U/L |  |  | IC50 ([1]; Hep G 2.2.15 cells, HBV DNA in supernate at day 10 post-dosing, read-out: IC50): 11.3 µM |
| Nc1ncnc2c1ncn2CCOCP(=O)(Oc1cccc2ccccc12)Oc1cccc2ccccc12 [i-2, 9-[[bis-(naphthoxy)-phosphonyl-methoxyl]-ethyl]-adenine, reference compound] |  | 3482 U/L | 3660 U/L | 1374 U/L | 1812 U/L | 1.92 µM | 152 µM |  |
